pEC50: −log10 of the molar value.

For one assay, the system named is SNU398. Nature of the assay: cells. Further details: species or system SNU387, SNU398 and SNU387 isogenic lines; CellTiter-Glo luminescence viability dose response in 384-well plates, nonlinear regression. Conditions: Homo sapiens, SNU-398; 72 h cell viability; read-out: EC50 / SNU398Hi. As to the method: (§1) Empty vector, SALL4A, and SALL4B expressing isogenic cell lines were generated by transducing the SALL4 negative hepatocellular carcinoma SNU-387 cells with empty vector, SALL4A, or SALL4B FUW-Luc-mCh-puro lentiviral constructs. Cells were plated in 50 μl of RPMI culture media in 384-well white flat-bottom plates (Corning) and incubated at 37 °C in a humidified atmosphere of 5% CO2 overnight. Cell numbers per well were 1500 for SNU-398, and 750 for SNU-387 and SNU-387 isogenic lines. After overnight incubation, varying concentrations of compounds 1–80 were added to cells with multichannel electronic pipettes (Rainin). Cells were then incubated for 72 h at 37 °C in a humidified atmosphere of 5% CO2 before 10 μl of CellTiter-Glo reagent was added to the wells with the MultiFlo Microplate Dispenser (BioTek). Cells were incubated at room temperature for a minimum of 10 min, after which luminescence readings were recorded by an Infinite M1000 Microplate Reader (Tecan). Each data point was performed in n = 3 independent cell cultures. IC50 of compounds were determined using nonlinear regression fitting from Prism (GraphPad). Cell-based screening was next employed to evaluate the growth inhibitory activity of the test compounds against SALL4 expressing malignant cells. SNU398, a liver cancer cell line with high endogenous levels of SALL4, and SNU387, a liver cancer cell line with undetectable levels of SALL4, were used for comparison. Cells were incubated with the test compound at 1 μM for 72 h, after which cell viability was assessed. […] Next, we carried out dose escalation studies on all SH compounds to deduce their EC50 values on SNU387 and SNU398. In order to interrogate the effects of compounds targeting SALL4, we created isogenic cells by overexpressing SALL4A (SNU387-TgSALL4A) or SALL4B (SNU387-TgSALL4B) in SNU387 cells (Tan et al, [2019]) (Fig. 2B, and Dataset EV4). The EC50 of SH2, SH6, and SH7 in SALL4 high SNU398 cells were 0.4 μM, 0.5 μM, and 0.3 μM, respectively. In contrast, the EC50 values of the same compounds were more than 10 μM on SALL4 low SNU387 cells.

The subject of a further assay is SNU387. In words: cells. Further details: species or system SNU398 and SNU387 isogenic lines; CellTiter-Glo luminescence viability dose response in 384-well plates, nonlinear regression. As to conditions: Homo sapiens, SNU-387; 72 h cell viability; read-out: EC50 / SNU387Lo. As to the method:
as §1

As for `COc1cc(Nc2ncccc2C(=O)Nc2ccccc2N)cc(OC)c1OC` [SH41], the pEC50 in the assay on SNU398 and in the assay on SNU387 was less than 4.52 throughout.
`Nc1ccccc1NC(=O)/C=C/c1cccnc1Nc1ccc(Cl)cc1` [SH33]: the figures for the pEC50 in the assay on SNU398 and with SNU387 were approximately 4.70 and less than 4.52, respectively.
Take `COc1ccc(Nc2ncccc2/C=C/C(=O)Nc2cc(OC)ccc2N)cc1` [SH10]: the pEC50 is approximately 5.60 with SNU398 and less than 4.52 with SNU387.
In the same order, the values of `COc1ccc(N)c(NC(=O)/C=C/c2cccnc2Nc2ccc(Cl)cc2)c1` [SH34] are approximately 5.52 and approximately 5.30.
In the same order, the values of `COc1cc(Nc2ncccc2C(=O)Nc2cc(C)ccc2N)cc(OC)c1OC` [SH43] are approximately 4.92 and approximately 4.52.
In the same order, the values of `Nc1ccccc1NC(=O)c1cccnc1Nc1ccc(Cl)cc1` [SH73] are approximately 4.52 and less than 4.52.
As for `COc1ccc(N)c(NC(=O)c2cccnc2Nc2ccc(F)cc2)c1` [SH58], the pEC50 in the assay on SNU398 and with SNU387 was less than 4.52 in each case.
For `COc1cc(Nc2ncccc2C(=O)Nc2cc(Cl)ccc2N)cc(OC)c1OC` [SH46], the pEC50 in the assay on SNU398 and in the assay on SNU387 was less than 4.52 each time.
`COc1ccc(Nc2ncccc2C(=O)Nc2cc(Cl)ccc2N)cc1` [SH54]: the pEC50 in the assay with SNU398 and in the assay with SNU387 was less than 4.52 throughout.
Consider `Cc1cc(N)c(NC(=O)/C=C/c2cccnc2Nc2ccc(C(F)(F)F)cc2)cc1C` [SH28], for which the pEC50 in the assay on SNU398 was approximately 4.92; with SNU387, approximately 4.60.
`COc1cc(Nc2ncccc2/C=C/C(=O)Nc2cc(C)c(C)cc2N)cc(OC)c1OC` [SH4]: the pEC50 in the assay on SNU398 was approximately 5.70; in the assay with SNU387 it was less than 4.52.
Consider `Cc1cc(N)c(NC(=O)c2cccnc2Nc2ccc(C(F)(F)F)cc2)cc1C` [SH68], for which the pEC50 with SNU398 and in the assay with SNU387 was less than 4.52 in each case.
With `Nc1ccccc1NC(=O)c1cccnc1Nc1ccc(F)cc1` [SH57], the pEC50 with SNU398 and with SNU387 was less than 4.52 in each case.
Turning to `Cc1ccc(N)c(NC(=O)c2cccnc2Nc2ccc(C(F)(F)F)cc2)c1` [SH67], the pEC50 with SNU398 and with SNU387 was less than 4.52 throughout.
As for `COc1ccc(Nc2ncccc2C(=O)NO)cc1` [SH56], the pEC50 in the assay with SNU398 and in the assay on SNU387 was less than 4.52 each time.
As to `O=C(NO)c1cccnc1Nc1ccc(C(F)(F)F)cc1` [SH72], the pEC50 with SNU398 was approximately 4.60; in the assay on SNU387, less than 4.52.
In the same order, the values of `Nc1ccc(F)cc1NC(=O)c1cccnc1Nc1ccc(Cl)cc1` [SH77] are approximately 4.60 and less than 4.52.
In the same order, the values of `COc1cc(Nc2ncccc2/C=C/C(=O)Nc2cc(C)ccc2N)cc(OC)c1OC` [SH3] are approximately 5.82 and less than 4.52.
On the same counts, the results for `Cc1ccc(N)c(NC(=O)c2cccnc2Nc2ccc(F)cc2)c1` [SH59] are less than 4.52 and less than 4.52.
For `Nc1ccc(F)cc1NC(=O)/C=C/c1cccnc1Nc1ccc(Cl)cc1` [SH37], the values for the pEC50 in the assay on SNU398 and in the assay with SNU387 were approximately 4.77 and less than 4.52, respectively.
For the compound `Nc1cc(Cl)c(Cl)cc1NC(=O)/C=C/c1cccnc1Nc1ccc(F)cc1` [SH23], the pEC50 in the assay with SNU398 is approximately 4.92; in the assay with SNU387, approximately 4.60.
On the same counts, the results for `Nc1cc(Cl)c(Cl)cc1NC(=O)/C=C/c1cccnc1Nc1ccc(Cl)cc1` [SH39] are approximately 4.80 and approximately 4.60.
As for `Cc1cc(N)c(NC(=O)/C=C/c2cccnc2Nc2ccc(Cl)cc2)cc1C` [SH36], the pEC50 is approximately 4.77 with SNU398 and less than 4.52 in the assay on SNU387.
In the same order, the values of `Nc1ccc(F)cc1NC(=O)c1cccnc1Nc1ccc(C(F)(F)F)cc1` [SH69] are approximately 4.80 and less than 4.52.
As for `Nc1ccc(Cl)cc1NC(=O)/C=C/c1cccnc1Nc1ccc(Cl)cc1` [SH38], the values for the pEC50 in the assay with SNU398 and with SNU387 were approximately 4.82 and less than 4.52, respectively.
With `COc1ccc(Nc2ncccc2/C=C/C(=O)Nc2cc(C)c(C)cc2N)cc1` [SH12], the pEC50 with SNU398 was approximately 4.60; in the assay with SNU387 it was less than 4.52.
As for `COc1ccc(Nc2ncccc2C(=O)Nc2cc(C)ccc2N)cc1` [SH51], the pEC50 in the assay on SNU398 and with SNU387 was less than 4.52 each time.
In the case of `Nc1ccc(Cl)cc1NC(=O)/C=C/c1cccnc1Nc1ccc(F)cc1` [SH22], the pEC50 is approximately 4.82 with SNU398 and approximately 4.52 in the assay with SNU387.
On the same counts, the results for `COc1cc(Nc2ncccc2C(=O)Nc2cc(C)c(C)cc2N)cc(OC)c1OC` [SH44] are less than 4.52 and less than 4.52.
On the same counts, the results for `COc1cc(Nc2ncccc2C(=O)Nc2cc(Cl)c(Cl)cc2N)cc(OC)c1OC` [SH47] are approximately 4.74 and less than 4.52.
On the same counts, the results for `Nc1ccc(Cl)cc1NC(=O)c1cccnc1Nc1ccc(C(F)(F)F)cc1` [SH70] are approximately 4.60 and less than 4.52.
Regarding `COc1ccc(Nc2ncccc2C(=O)Nc2cc(C)c(C)cc2N)cc1` [SH52], the pEC50 with SNU398 and in the assay on SNU387 was less than 4.52 each time.
`COc1cc(Nc2ncccc2/C=C/C(=O)NO)cc(OC)c1OC` [SH8]: the pEC50 in the assay on SNU398 and with SNU387 was less than 4.52 throughout.
On to `Nc1ccc(F)cc1NC(=O)/C=C/c1cccnc1Nc1ccc(C(F)(F)F)cc1` [SH29], for which the pEC50 in the assay on SNU398 was approximately 4.92; with SNU387, less than 4.52.
On the same counts, the results for `Nc1ccc(Cl)cc1NC(=O)c1cccnc1Nc1ccc(Cl)cc1` [SH78] are approximately 4.60 and less than 4.52.
On the same counts, the results for `Nc1ccc(Cl)cc1NC(=O)/C=C/c1cccnc1Nc1ccc(C(F)(F)F)cc1` [SH30] are approximately 4.92 and approximately 4.52.
On the same counts, the results for `Nc1cc(Cl)c(Cl)cc1NC(=O)/C=C/c1cccnc1Nc1ccc(C(F)(F)F)cc1` [SH31] are approximately 5.00 and approximately 4.85.
With `COc1cc(Nc2ncccc2C(=O)NO)cc(OC)c1OC` [SH48], the pEC50 in the assay on SNU398 and in the assay on SNU387 was less than 4.52 in each case.
As for `Nc1ccccc1NC(=O)c1cccnc1Nc1ccc(C(F)(F)F)cc1` [SH65], the results for the pEC50 in the assay with SNU398 and with SNU387 were approximately 4.60 and less than 4.52, respectively.
With `COc1cc(Nc2ncccc2/C=C/C(=O)Nc2ccccc2N)cc(OC)c1OC` [SH1], the pEC50 in the assay on SNU398 is approximately 5.52; in the assay on SNU387, approximately 4.52.
In the same order, the values of `Nc1ccccc1NC(=O)/C=C/c1cccnc1Nc1ccc(F)cc1` [SH17] are approximately 4.52 and less than 4.52.
On the same counts, the results for `O=C(NO)c1cccnc1Nc1ccc(F)cc1` [SH64] are less than 4.52 and less than 4.52.
With `COc1cc(Nc2ncccc2C(=O)Nc2cc(F)ccc2N)cc(OC)c1OC` [SH45], the pEC50 in the assay with SNU398 and in the assay with SNU387 was less than 4.52 in each case.
On to `COc1ccc(Nc2ncccc2C(=O)Nc2cc(Cl)c(Cl)cc2N)cc1` [SH55], for which the results for the pEC50 with SNU398 and with SNU387 were approximately 4.60 and less than 4.52, respectively.
As for `COc1ccc(Nc2ncccc2C(=O)Nc2cc(F)ccc2N)cc1` [SH53], the pEC50 in the assay with SNU398 and in the assay with SNU387 was less than 4.52 each time.
For the compound `COc1ccc(Nc2ncccc2/C=C/C(=O)NO)cc1` [SH16], the pEC50 in the assay with SNU398 and with SNU387 was less than 4.52 in each case.
Take `COc1ccc(Nc2ncccc2/C=C/C(=O)Nc2cc(C)ccc2N)cc1` [SH11]: the results for the pEC50 in the assay with SNU398 and with SNU387 were approximately 5.52 and approximately 5.00, respectively.
Turning to `COc1ccc(N)c(NC(=O)/C=C/c2cccnc2Nc2ccc(F)cc2)c1` [SH18], the pEC50 is approximately 5.70 in the assay on SNU398 and less than 4.52 in the assay with SNU387.
In the case of `COc1ccc(Nc2ncccc2C(=O)Nc2ccccc2N)cc1` [SH49], the pEC50 in the assay on SNU398 and in the assay on SNU387 was less than 4.52 each time.
`O=C(NO)c1cccnc1Nc1ccc(Cl)cc1` [SH80]: the pEC50 in the assay on SNU398 and in the assay with SNU387 was less than 4.52 in each case.
Regarding `COc1cc(Nc2ncccc2/C=C/C(=O)Nc2cc(F)ccc2N)cc(OC)c1OC` [SH5], the pEC50 in the assay with SNU398 is approximately 5.60; with SNU387 it was less than 4.52.
On the same counts, the results for `Cc1ccc(N)c(NC(=O)/C=C/c2cccnc2Nc2ccc(C(F)(F)F)cc2)c1` [SH27] are approximately 4.92 and less than 4.52.
Take `COc1ccc(Nc2ncccc2/C=C/C(=O)Nc2cc(Cl)c(Cl)cc2N)cc1` [SH15]: the results for the pEC50 in the assay with SNU398 and in the assay with SNU387 were approximately 4.70 and less than 4.52, respectively.
On to `Nc1cc(Cl)c(Cl)cc1NC(=O)c1cccnc1Nc1ccc(Cl)cc1` [SH79], for which the results for the pEC50 in the assay on SNU398 and in the assay on SNU387 were approximately 4.70 and less than 4.52, respectively.
On the same counts, the results for `Nc1cc(Cl)c(Cl)cc1NC(=O)c1cccnc1Nc1ccc(F)cc1` [SH63] are approximately 4.70 and less than 4.52.

(Values after PMC12163085, “Targeting transcription factors through an IMiD independent zinc finger domain” (EMBO Molecular Medicine, 2025).)
